# From patent EP1420018A1, “Pyrido[1,2-a]benzimidazole derivatives useful in treating central nervous system disorders” (Ortho-McNeil Pharmaceutical, Inc., priority 1996, dated 1998)
# Where two headings read alike, the source gives them in different places.
# How the values were obtained:
# [1] = test system: Anxiety in the Adult Male Rat; test: Suppression of Anxiety in the Adult Male Rat (rat conflict test); assay type: in vivo, rats; conditions: for minimal effective dose: Rattus norvegicus
# Procedure: Assay to Measure the Suppression of Anxiety in the Adult Male Rat
# Male rats were deprived of water for 48 hours and were deprived of food for 24 hours prior to testing. After the first 24 hours of water deprivation, they were placed in the conflict chamber for a training period; wherein, they were allowed 200 unpunished licks from a bottle containing tap water. The experiment was run the next day. At the expected time of peak activity, the animals were placed in the chamber and allowed access to tap water. […] Their first lick initiates a 3-min test session. Subsequently, every 20th lick was punished by a 0.2-s shock delivered via the stainless-steel drinking-tube.
# The Wilcoxon rank-sum test (Mann-Whitney U-test) was used to test for an increase (p<0.05, 1-tailed) in the median number of shocks in drug-treated groups, compared to a concurrently run vehicle-treated group. The biological assay is considered to be valid if the effects of a known anxiolytic (positive control) are detected, within the same experiment.
# [2] = test system: metrazol-induced convulsions; test: Suppression of Metrazol-Induced Convulsions in Adult Male Mice; assay type: in vivo; conditions: for ED50: Mus musculus, po
# [3] = biological target: benzodiazepine site of the GABA-A receptor; test: Benzodiazepine Receptor Binding Assay (inhibition of 3H-flunitrazepam binding); conditions: read-out: GABAA Receptor Binding IC50
# [4] = test system: metrazol-induced convulsions; test: Suppression of Metrazol-Induced Convulsions in Adult Male Mice; assay type: in vivo; conditions: for ED50: Mus musculus, ip
# Procedure: Assay to Determine the Suppression of Metrazol-Induced Convulsions in Adult Male Mice
# Male CD1 mice, were fasted at least 16 hours, were divided into equal groups and test compounds or vehicle were administered parenterally. Water was not withheld except during the period of observations. […] Metrazol was dissolved in 0.9% sodium chloride solution, and its dose volume was 10 ml/kg. Animals were housed individually for observation of clonic convulsions, tonic convulsions and death for a period of 30 min. […] The biological assay was considered to be valid if the effects of a known anticonvulsant (positive control) were detected, within the same experiment. Activity was reported as percent reduction of clonic convulsions from the vehicle group.
# [5] = po, minimum effective dose, increase in shocks tolerated, >10 = active dose not determined, read-out: Rat Conflict (MED, mg/kg) po
# [6] = inhibition of 3H-flunitrazepam (ca. 3 nM) binding to membranes, 25°C, over 10,000 = not active
# [7] = block of clonic convulsions, male CD1 mice, >30 = active dose not determined
# [8] = ip, minimum effective dose, increase in shocks tolerated, >10 = active dose not determined, read-out: Rat Conflict (MED, mg/kg) ip
# [9] = ip, rat, ip, read-out: Rat Conflict (MED, mg/kg) ip
# [10] = po, rat, po, read-out: Rat Conflict (MED, mg/kg) po
Molecule,IC50 [3] [nM],"minimal effective dose [1, 5] [mg/kg]","IC50 [3, 6] [nM]","ED50 [2, 7] [mg/kg]","ED50 [4, 7] [mg/kg]","minimal effective dose [1, 10] [mg/kg]",also measured
"7-Fluoro-1,2-dihydro-5-[2-(methoxy)ethoxymethyl]-3-oxo-N-(2-fluorophenyl)pyrido[1,2-a]benzimidazole-4-carboxamide [Compound 160]",0.48,–,–,–,–,–,"Rat Conflict (MED, mg/kg) ip ([1]; rat, ip): <10 mg/kg; Rat Conflict (MED, mg/kg) po ([1]; rat, po): 1 mg/kg; Mouse Metrazol (ED50, mg/kg) po ([2]; mouse): 0.3 mg/kg; Mouse Metrazol (ED50, mg/kg) ip ([4]; mouse): <1 mg/kg"
O=C(CN1C2=C(C(=O)Nc3ccccc3F)C(=O)CCN2c2ccc(F)cc21)NCCc1c[nH]cn1 [Compound 32],–,> 3,3.56,–,–,–,–
CN=C(NCCN1C2=C(C(=O)Nc3ccccc3F)C(=O)CCN2c2ccc(F)cc21)N1CCCC1 [Compound 33],–,> 3,54,–,–,–,–
COc1cccc2c1N(CCN(C)C)C1=C(C(=O)Nc3nccs3)C(=O)CCN12 [Compound 34],–,> 3,1000,–,–,–,–
Cc1ccc(NC(=O)C2=C3N(CCNS(=O)(=O)C(F)(F)F)c4cc(F)ccc4N3CCC2=O)s1 [Compound 35],–,> 10,46.9,–,–,–,–
"N#CCCNC(=O)CN1C2=C(C(=O)Nc3ccccc3F)C(=O)CCN2c2ccc(F)cc21 [Compound 36, 7-Fluoro-1,2-dihydro-5-[N-(2-cyanoethyl)-2-acetamido]-3-oxo-N-(2-fluorophenyl)pyrido[1,2-a]benzimidazole-4-carboxamide]",–,> 10,3.3,> 30,> 1,–,–
CN(CCN1C2=C(C(=O)Nc3ccccc3F)C(=O)CCN2c2ccc(F)cc21)S(=O)(=O)C(F)(F)F [Compound 37],–,> 10,18.3,> 30,> 1,–,–
"COCCN(C)CCN1C2=C(C(=O)Nc3ccccc3F)C(=O)CCN2c2ccc(F)cc21 [Compound 38, 7-Fluoro-1,2-dihydro-5-[N-(2-(methoxy)ethyl)-2-(methylamino)ethyl]-3-oxo-N-(2-fluorophenyl)pyrido[1,2-a]-benzimidazole-4-carboxamide]",–,3,4.06,1,< 1,–,–
O=C1CCN2C(=C1C(=O)Nc1ccccc1F)N(CCNS(=O)(=O)c1ccc(C(F)(F)F)cc1)c1cc(F)ccc12 [Compound 39],–,> 10,122,> 3,> 1,–,–
CN(C)C=NCCN1C2=C(C(=O)Nc3ccccc3F)C(=O)CCN2c2ccc(F)cc21 [Compound 40],–,10,35,~30,< 1,–,–
CCN(C)CCN1C2=C(C(=O)Nc3ccccc3F)C(=O)CCN2c2ccc(F)cc21 [Compound 41],–,10,9.8,~10,3,–,–
O=C1CCN2C(=C1C(=O)Nc1ccccc1F)N(CCNC(=O)c1ccc(C(F)(F)F)cc1)c1cc(F)ccc12 [Compound 42],–,~3,17,> 30,≥ 30,–,"minimal effective dose [1, 8]: ≤ 10 mg/kg"
CN(C)CCN1C2=C(C(=O)Nc3ccccc3F)C(=O)CCN2c2ccc(Cl)cc21 [Compound 43],–,> 10,26.9,< 30,1 to 10,–,"minimal effective dose [1, 8]: 10 mg/kg"
O=C1CCN2C(=C1C(=O)Nc1ccccc1F)N(CCNS(=O)(=O)c1ccccc1)c1cc(F)ccc12 [Compound 44],–,> 10,10.1,< 30,≤ 1,–,"minimal effective dose [1, 8]: > 10 mg/kg"
CN(C)CCN1C2=C(C(=O)Nc3ccccc3F)C(=O)CCN2c2cccc(F)c21 [Compound 45],–,10,40.6,3 to 10,1,–,"minimal effective dose [1, 8]: > 10 mg/kg"
O=C(CN1C2=C(C(=O)Nc3c(F)cccc3F)C(=O)CCN2c2ccc(F)cc21)Nc1ccccc1F [Compound 60],21.4,–,–,–,–,–,ED50 ([2]; mouse): > 30 mg/kg; ED50 ([4]; mouse): 10 mg/kg
"O=C1CCN2C(=C1C(=O)Nc1c(F)cccc1F)N(CCN(Cc1ccccc1)Cc1ccccc1)c1cc(F)ccc12 [Compound 63, 7-Fluoro-1,2-dihydro-5-[N,N-di(benzyl)-2-aminoethyl]-3-oxo-N-(2,6-difluorophenyl)pyrido[1,2-a]benzimidazole-4-carboxamide]",15.5,–,–,–,–,–,"minimal effective dose [1, 9]: > 10 mg/kg"
CCOCN1C2=C(C(=O)Nc3ccc(OCc4ccccc4)cc3F)C(=O)CCN2c2ccc(F)cc21 [Compound 92],3.33,–,–,–,–,> 3,–

Molecule,IC50 [3] [nM],"minimal effective dose [1, 5] [mg/kg]","IC50 [3, 6] [nM]","ED50 [2, 7] [mg/kg]","ED50 [4, 7] [mg/kg]","minimal effective dose [1, 10] [mg/kg]",also measured
CCOCN1C2=C(C(=O)Nc3ccc(OCCOC)cc3F)C(=O)CCN2c2ccc(F)cc21 [Compound 93],1.8,–,–,–,–,≤ 0.3,–
"O=C1CCN2C(=C1C(=O)Nc1ccccc1F)N(CCO)c1c(O)cccc12 [Compound 94, 6-Hydroxy-1,2-dihydro-5-(2-hydroxyethyl)-3-oxo-N-(2-fluorophenyl)pyrido[1,2-a]benzimidazole-4-carboxamide]",2.38,–,–,–,–,> 10,–
CCOCN1C2=C(C(=O)Nc3ccc(OC(C)C)cc3F)C(=O)CCN2c2ccc(F)cc21 [Compound 95],2.5,–,–,–,–,≤ 3,–
COCCN1C2=C(C(=O)Nc3ccccc3F)C(=O)CCN2c2cccc(OC)c21 [Compound 96],1.8,–,–,–,–,> 10,–
"CCOCN1C2=C(C(=O)Nc3ccc(OC)cc3F)C(=O)CCN2c2ccc(F)cc21 [Compound 97, 7-Fluoro-1,2-dihydro-5-ethoxymethyl-3-oxo-N-(2-fluoro-4-methoxyphenyl)pyrido[1,2-a]benzimidazole-4-carboxamide]",0.41,–,–,–,–,0.03,"minimal effective dose [1, 9]: ≤ 0.1 mg/kg; ED50 ([2]; mouse): ≤ 0.3 mg/kg"
COCCN1C2=C(C(=O)Nc3ncc(C)s3)C(=O)CCN2c2ccccc21 [Compound 98],11,–,–,–,–,3,–
"CCOCN1C2=C(C(=O)Nc3ccc(O)cc3F)C(=O)CCN2c2ccc(F)cc21 [Compound 99, 7-Fluoro-1,2-dihydro-5·ethoxymethyl·3-oxo-N-(2-fluoro-4-hydroxyphenyl)pyrido[1,2-a]benzimidazale-4-carboxamide]",1.38,–,–,–,–,1 to 3,"minimal effective dose [1, 9]: ≤ 1 mg/kg; ED50 ([2]; mouse): 0.3 to 3 mg/kg"
COCCN1C2=C(C(=O)Nc3ccccc3F)C(=O)CCN2c2c(OCc3ccccc3)cccc21 [Compound 109],> 1000,–,–,–,–,> 10,–
CCOCN1C2=C(C(=O)Nc3ccccc3F)C(=O)CCN2c2cc(F)cc(F)c21 [Compound 112],13.3,–,–,–,–,> 10,–
CCOCN1C2=C(C(=O)Nc3ccc(F)cc3F)C(=O)CCN2c2cc(F)cc(F)c21 [Compound 113],44.3,–,–,–,–,> 10,–
CCOCN1C2=C(C(=O)Nc3cc4ccccc4s3)C(=O)CCN2c2ccc(F)cc21 [Compound 115],53.5,–,–,–,–,–,ED50 ([2]; mouse): > 30 mg/kg; ED50 ([4]; mouse): > 1 mg/kg
CCOCCN1C2=C(C(=O)Nc3cc4ccccc4s3)C(=O)CCN2c2ccc(F)cc21 [Compound 117],106,–,–,–,–,–,ED50 ([2]; mouse): > 30 mg/kg; ED50 ([4]; mouse): ≤ 1 mg/kg
"CC(=O)OCCN1C2=C(C(=O)Nc3ccccc3F)C(=O)CCN2c2ccc(F)cc21 [Compound 119, 7-Fluoro-1,2-dihydro-5-(2-acetoxyethyl)-3-oxo-N-(2-fluorophenyl)pyrido[1,2-a]benzimidazole-4-carboxamide]",–,–,–,–,–,3,ED50 ([2]; mouse): ≤ 3 mg/kg; ED50 ([4]; mouse): < 1 mg/kg
CCOCCN1C2=C(C(=O)Nc3ccc(Cl)s3)C(=O)CCN2c2ccc(F)cc21 [Compound 132],3.13,–,–,–,–,> 3,–
CCOCN1C2=C(C(=O)Nc3ccc(C)s3)C(=O)CCN2c2ccc(F)cc21 [Compound 133],0.68,–,–,–,–,> 3,–
"O=C1CCN2C(=C1C(=O)Nc1ccccc1F)N(CC(O)CO)c1cc(F)ccc12 (stereo not drawn) [Compound 162, 7-Fluoro-1,2-dihydro-5-[2,3-dihydroxypropyl]-3-oxo-N-(2-fluorophenyl)pyrido[1,2-a]benzimidazole-4-carboxamide]",–,–,–,–,–,> 10,"minimal effective dose [1, 9]: ≤ 10 mg/kg; ED50 ([2]; mouse): ≤ 30 mg/kg; ED50 ([4]; mouse): 3 mg/kg"
"C[S+]([O-])CCN1C2=C(C(=O)Nc3ccccc3F)C(=O)CCN2c2ccc(F)cc21 (stereo not drawn) [Compound 183, 7-Fluoro-1,2-dihydro-5-[2-(methylsulfoxy)ethyl]-3-oxo-N-(2-fluorophenyl)pyrido[1,2-a]benzimidazole-4-carboxamide]",–,10,–,~10,> 1,–,–
